According to BindingDB's records for doi:10.1021/jm00018a028 (University of Nebraska Medical Center, 1995):

Test: Ability to induce shape change (polarization) in human polymorphonuclear leukocytes (PMN)

Row | Compound | EC50 [µM]
1 | H-YSFKDMQPGR-OH | 22
2 | CSCC[C@H](NC(=O)[C@H](CC(=O)O)NC(=O)[C@H](CCCCN)NC(=O)[C@H](Cc1ccccc1)NC(=O)[C@H](CO)NC(=O)[C@@H](N)Cc1ccc(O)cc1)C(=O)N1CCC[C@H]1C(=O)N[C@@H](CC(C)C)C(=O)NCC(=O)N[C@@H](CCCNC(=N)N)C(=O)O | 5
3 | CC(C)C[C@H](NC(=O)[C@@H]1CCCN1C(=O)[C@H](C)NC(=O)[C@H](CC(=O)O)NC(=O)[C@H](CCCCN)NC(=O)[C@H](Cc1ccccc1)NC(=O)[C@H](CO)NC(=O)[C@@H](N)Cc1ccc(O)cc1)C(=O)NCC(=O)N[C@@H](CCCNC(=N)N)C(=O)O | 15.8
4 | H-YSFKGLLLGR-OH | 0.3
5 | H-YSFKDMQLGR-OH [Tyr-Ser-Phe-LyS-Asp-Met-Glu-Leu-Gly-Arg] | 37
